Assay: in vitro colour development test with lysine solution (Bobin et al.)
Protocol: 0.02 mol/l of lysine are dissolved in a phosphate buffer system in accordance with DIN 19268 (pH 7). 10 ml of this solution are treated with 0.002 mol of 1,3-bis(trimethylsiloxy)-2-propanone and the mixture is stirred at 32-35° C. for 72 h.
As comparison, 10 ml of the lysine solution are treated with 0.002 mol of dihydroxyacetone and stirred at 32-35° C. for 72 h.

In the case of C[Si](C)(C)OCC(=O)CO[Si](C)(C)C [1,3-bis(trimethylsiloxy)-2-propanone, 1,3-bis(Trimethylsiloxy)-2-propanone], the brown coloration (0.002 mol substance in 10 ml of 0.02 mol/l lysine in phosphate buffer pH 7, stirred at 32-35° C. for 72 h) is reported as “comparable brown coloration” and the “rate of development of the brown coloration” value (compared with dihydroxyacetone, lysine in phosphate buffer pH 7, 32-35° C.) is reported as “develops more slowly”.

From patent publication US20070092460A1, “Silylated compounds as precursors for self-tanning compositions” (priority 2000, published 2007)
